Assay: xn = mol fraction of the nth substance listed
Details: 101 kPa

CCCC[N+]1(C)CCCC1.O=S(=O)([N-]S(=O)(=O)C(F)(F)F)C(F)(F)F + CC(C)O
speed of sound [m/s]
Details	298.15 K	303.15 K	308.15 K
x2 = 0	1269.3	–	1247.1
x2 = 0.0593	1264.9	1253.7	1243.5
x2 = 0.1319	–	1248.7	1237.4
x2 = 0.2344	1250.8	1239.1	–
x2 = 0.3929	1234.8	1222.9	1211.2
x2 = 0.4935	1222.3	1210.2	1198.1
x2 = 0.5927	1207.5	–	1182.9
x2 = 0.718	1184.1	1171.2	1158.4
x2 = 0.8015	1165.1	1151.8	1138.5
x2 = 0.9018	1143	1129.1	1115.9
x2 = 0.9491	1138.1	1122.5	1106.8

CCCC[n+]1cccc(C)c1.O=S(=O)([N-]S(=O)(=O)C(F)(F)F)C(F)(F)F + CC(C)O
speed of sound [m/s]
Details	298.15 K	303.15 K	308.15 K
x2 = 0	1248.3	1237.1	1226
x2 = 0.0534	1245.3	1234.1	1222.2
x2 = 0.1034	–	1231	1219.8
x2 = 0.1577	–	1227.4	1216.1
x2 = 0.1756	1237	1225.7	1214.3
x2 = 0.3062	1227.4	1215.8	1204.2
x2 = 0.3957	1220.8	1209	1197.1
x2 = 0.51	1208.6	1197.3	1185.3
x2 = 0.6002	1197.7	1185.3	1173
x2 = 0.7046	1182.1	1169.3	1156.5
x2 = 0.8006	–	–	1135.4
x2 = 0.8988	–	1129.5	1115.2

CC(C)O + CCCC[N+]1(C)CCCC1.O=S(=O)([N-]S(=O)(=O)C(F)(F)F)C(F)(F)F
x1 = 1
Details	speed of sound [m/s]
298.15 K	1139.6
303.15 K	1122
308.15 K	1104.4

CCCO + CCCC[N+]1(C)CCCC1.O=S(=O)([N-]S(=O)(=O)C(F)(F)F)C(F)(F)F
x1 = 1
Details	speed of sound [m/s]
298.15 K	1206.4
303.15 K	1189.3

CCO + CCCC[N+]1(C)CCCC1.O=S(=O)([N-]S(=O)(=O)C(F)(F)F)C(F)(F)F
x1 = 1
Details	speed of sound [m/s]
303.15 K	1126.7
308.15 K	1109.8

CC(C)O + CCCC[n+]1cccc(C)c1.O=S(=O)([N-]S(=O)(=O)C(F)(F)F)C(F)(F)F
x1 = 1
Details	speed of sound [m/s]
298.15 K	1139.6
303.15 K	1122

CCCO + CCCC[n+]1cccc(C)c1.O=S(=O)([N-]S(=O)(=O)C(F)(F)F)C(F)(F)F
x1 = 1
Details	speed of sound [m/s]
298.15 K	1206.4
303.15 K	1189.3
308.15 K	1172.3

CCO + CCCC[n+]1cccc(C)c1.O=S(=O)([N-]S(=O)(=O)C(F)(F)F)C(F)(F)F
x1 = 1
Details	speed of sound [m/s]
298.15 K	1143.6
303.15 K	1126.7
308.15 K	1109.8

CCCC[N+]1(C)CCCC1.O=S(=O)([N-]S(=O)(=O)C(F)(F)F)C(F)(F)F + CCCO
speed of sound [m/s]
Details	x2 = 0	x2 = 0.0545	x2 = 0.0931	x2 = 0.1903	x2 = 0.2935	x2 = 0.3972	x2 = 0.5916	x2 = 0.7837	x2 = 0.8975	x2 = 0.9472
298.15 K	1269.3	1267	1264.9	1259.7	–	1246	1230	1201.2	1190.9	–
303.15 K	1258.1	–	1253.5	1248.2	1241.7	1234.2	–	1188	1176.4	1178
308.15 K	1247.1	1244.4	1242.3	1236.9	1230.2	1222.5	1206	1175	1162	1162.7

CCCC[n+]1cccc(C)c1.O=S(=O)([N-]S(=O)(=O)C(F)(F)F)C(F)(F)F + CCCO
speed of sound [m/s]
Details	298.15 K	303.15 K	308.15 K
x2 = 0	1248.3	1237.1	1226
x2 = 0.0431	–	1235.4	1224.3
x2 = 0.0889	1244.5	1233.4	1222.3
x2 = 0.1564	1241.8	–	1219.1
x2 = 0.2913	–	1223.2	1211.8
x2 = 0.3788	1229.5	1217.9	1206.3
x2 = 0.5665	1215.6	1203.5	1191.5
x2 = 0.5901	–	1201.4	1189.3
x2 = 0.6913	1204	1191.4	–
x2 = 0.8006	1194.1	1180.8	1167.7
x2 = 0.8947	1189.3	1174.9	–
x2 = 0.9467	1193.4	1178	1162.7

CCCC[N+]1(C)CCCC1.O=S(=O)([N-]S(=O)(=O)C(F)(F)F)C(F)(F)F + CCO
speed of sound [m/s]
Details	298.15 K	303.15 K	308.15 K
x2 = 0	1269.3	1258.2	1247.1
x2 = 0.0586	1266.6	1255.3	1244.2
x2 = 0.1981	1258.6	1247.2	1235.9
x2 = 0.2834	1252.8	1241.3	1229.9
x2 = 0.4449	1238.4	1226.6	1215
x2 = 0.5133	1230.8	1218.9	1207.1
x2 = 0.6012	1219.2	–	–
x2 = 0.7078	–	1189.2	1176.8
x2 = 0.7929	1184.8	1171.6	–
x2 = 0.8997	1158.2	1144	1129.8
x2 = 0.9492	–	1133.2	–

CCCC[n+]1cccc(C)c1.O=S(=O)([N-]S(=O)(=O)C(F)(F)F)C(F)(F)F + CCO
speed of sound [m/s]
Details	298.15 K	303.15 K	308.15 K
x2 = 0	–	1237.1	–
x2 = 0.0533	–	–	1223.8
x2 = 0.0924	1244.5	1233.1	–
x2 = 0.1963	1239.3	1227.9	1216.6
x2 = 0.3011	1233.2	1221.7	1210.3
x2 = 0.3959	1226.5	1214.9	1203.4
x2 = 0.4982	–	1206	1194.3
x2 = 0.599	–	–	1183.2
x2 = 0.6829	1195.9	1183.6	1171.3
x2 = 0.7355	1187.7	1175.2	–
x2 = 0.8008	1176.4	1163.2	1150.3
x2 = 0.8991	1156.9	1142.8	1128.7
x2 = 0.9436	1149.9	1134.8	1119.9
